Where two headings read alike, the source gives them in different places.
Columns and labels:
cancer cell lines = test: Proliferation assays, statements over several cancer cell lines; format: cell-based; conditions: SKOV-3, PC3, MCF-7, MDA-MB-468, HTB-138, HPAC, large cell lung cancer
Experimental: (§1) IC50 values were determined for each cell line. Cells were seeded in 96-well plates at an appropriate cell density as determined from growth kinetics analysis and cultured for 5 days in the absence and presence of the test compounds. Cell proliferation was assessed after the addition of 20 μl of 3-4,5 dimethylthiazol-2,5-diphenyl tetrazolium bromide (MTT, 2.5 mg/ml in PBS, Sigma) for 3-4 hrs at 37° C. according to manufacturer's instructions. IC50 values were calculated from semi-log plots of % of control proliferation on the y-axis against log dose on the x-axis.

[1] = test system: Mel-RM melanoma cell line; test: HMC combination with gemcitabine (synergy); format: cell-based; conditions: for IC50: Table 9, single agent
Experimental: as §1
3-D model analysis of the cytotoxic interaction between drug A and drug B enables the representation of predicted inhibitory effect of two drugs in combination in 3 dimensions to reveal actual regions of synergy or antagonism. The 3D synergy plots are based on a theory of “Theretical Additivity” (TA) as outlined by Kanzawa et al (Int. J. Cancer 71, 311-319 (1997)). Theoretical Additivity was calculated from the cytotoxicities of drug A and drug B as monotherapies using the following formula which assumes the drugs are mutually exclusive inhibitors: […]
The TA is calculated for each combination of drug concentrations and subtracted from the observed experimental effect for each combination to give a measurement of synergisitic action.
HMC synergy with gemcitabine was assessed either in combination over 5 days exposure or in sequence (HMC→gemcitabine) against the Mel-RM melanoma cell line. It was difficult to assess for synergisitic toxicity using a change in IC50 as a measure of synergy due to HMC toxicity as monotherapy (Table 9). […] Evidence of synergy using the HMC-gemcitabine combination was further assessed using the HMC→gemcitabine sequence (24 hr exposure to each compound in sequence) against the melanoma cell line Mel-RM. Using change in IC50 to assess for synergy it was noted that HMC at concentrations of 2 and 1 μM markedly chemosensitised the Mel-RM cells to gemcitabine by >1000 fold. HMC-induced chemosensitisation of Mel-RM cells to gemcitabine was confirmed using 3D analysis of the data.

MM200 melanoma cell line = test: HMC combination with topotecan (synergy); format: cell-based; conditions: for IC50: Table 11, single agent; for Change Factor (Combined): 5-day combination
Experimental: (§2) IC50 values were determined for each cell line. Cells were seeded in 96-well plates at an appropriate cell density as determined from growth kinetics analysis and cultured for 5 days in the absence and presence of the test compounds. […] IC50 values were calculated from semi-log plots of % of control proliferation on the y-axis against log dose on the x-axis.
(§3) 3-D model analysis of the cytotoxic interaction between drug A and drug B enables the representation of predicted inhibitory effect of two drugs in combination in 3 dimensions to reveal actual regions of synergy or antagonism. […] Theoretical Additivity was calculated from the cytotoxicities of drug A and drug B as monotherapies using the following formula which assumes the drugs are mutually exclusive inhibitors: […]
HMC synergy with topotecan was assessed either in combination over 5 days exposure or in sequence (HMC→topotecan) against the MM200 melanoma cell line.

[2] = test system: Mel-RM melanoma cell line; test: HMC combination with doxorubicin (synergy); format: cell-based; conditions: for IC50: Table 12, single agent; for Change Factor (Combined): 5-day combination
Experimental: as §2, §3
HMC synergy with doxorubicin was assessed either in combination over 5 days exposure or in sequence (HMC→doxorubicin) against the Mel-RM melanoma cell line.

[3] = test system: Mel-AT melanoma cells (Trail +ve/Caspase 8 −ve); test: Apoptosis incidence in melanoma cells; format: cell-based
[4] = test system: ME4405 melanoma cells (TRAIL sensitive); test: Apoptosis incidence in melanoma cells; format: cell-based
TXB2 = test: Eicosanoid synthesis in LPS-stimulated murine macrophages (RAW 264.7); format: cell-based, mouse; conditions: 10 μM; negative values indicate inhibition
Experimental: (§4) The mouse macrophage cell line RAW 264.7 was cultured in DMEM supplemented with foetal calf serum (FCS), 2 mM glutamine and 50 U/ml penicillin/streptomycin. Subconfluent cells were detached from the flask by gentle scraping and 24-well plates seeded at 5×10^5 cells per well and allowed to adhere for 1 hr. Cells were then treated either test compound at a concentration of 10 μM (in 0.025% DMSO) or vehicle alone, and incubated for 1 hr. LPS 50 ng/ml (LPS—Sigma-Aldrich) was then added. After incubation for 16 hrs, culture media was collected and stored at −80° C. for ecosanoid measurements using enzyme immunometric assays (PGE2 and TXB2—Cayman Chemical).
(§5) Table 16: Percentage change in eicosanoid synthesis after incubating test compound at 10 μM compared with incubation with vehicle alone.

PGE2 = test: as above; format: cell-based, mouse; conditions: 10 μM; negative values indicate inhibition
Experimental: as §4, §5

[5] = 120 h, 5 days exposure, read-out: IC50, Combined (monotherapy)
[6] = 24 hr exposure, read-out: IC50, 24 hr (monotherapy)

COc1ccc(C2c3ccc(O)cc3OCC2c2ccc(O)cc2)cc1 (stereo not drawn) [Compound 1, 3-(4-hydroxyphenyl)-4-(4-methoxyphenyl)chroman-7-ol]
activity compared to DHE IC50 values (cancer cell lines): 5-10 fold | IC50 [1, 5]: 0.51 µM | Change Factor (HMC first) ([1]; Gemcitabine block, HMC 1 uM 24 hr then gemcitabine 24 hr): >1000 | Change Factor (HMC first) ([1]; Gemcitabine block, HMC 2 uM 24 hr then gemcitabine 24 hr): >100 | chemosensitisation of Mel-RM cells to gemcitabine (change in IC50) ([1]; HMC 2 and 1 μM, HMC→gemcitabine sequence): > 1000 fold | IC50 [1, 6]: 27.8 µM | Change Factor (HMC first) ([1]; upper block of Table 9, HMC 1 uM first, sequence): >1000 | Change Factor (HMC first) ([1]; upper block of Table 9, HMC 2 uM first, sequence): >1000 | IC50 (MM200 melanoma cell line; [5]): 0.702 µM | chemosensitisation of MM200 cells to topotecan (change in IC50) (MM200 melanoma cell line; HMC 2 μM, HMC→topotecan sequence): > 1000 fold | IC50 (MM200 melanoma cell line; [6]): 18 µM | Change Factor (HMC first) (MM200 melanoma cell line; Topotecan block, HMC 1 uM 24 hr then topotecan 24 hr): 50.656 | Change Factor (Combined) (MM200 melanoma cell line; Topotecan block, with HMC 1 uM): ?HMC effect | Change Factor (Combined) (MM200 melanoma cell line; Topotecan block, with HMC 2 uM): ?HCM effect | Change Factor (HMC first) (MM200 melanoma cell line; upper block of Table 11, HMC 2 uM first, sequence): >1000 | Change Factor (Combined) (MM200 melanoma cell line; upper block of Table 11, HMC 2 uM): ?HMC effect | IC50 [2, 5]: 0.54 µM | Change Factor (HMC first) ([2]; HMC 1 uM 24 hr then doxorubicin 24 hr): 1.62 | Change Factor (HMC first) ([2]; HMC 2 uM 24 hr then doxorubicin 24 hr): 12.22 | chemosensitisation of Mel-RM cells to camptothecin (change in IC50) ([2]; HMC 2 μM, sequence protocol): ~12 fold | IC50 [2, 6]: 50.5 µM | Change Factor (Combined) ([2]; doxorubicin with HMC 1 uM): −2.06 | Change Factor (Combined) ([2]; doxorubicin with HMC 2 uM): ?HMC effect | Percent Apoptosis ([3]; 24 hr exposure, 1 uM): 0% | Percent Apoptosis ([3]; 24 hr exposure, 2 uM): 6% | Percent Apoptosis ([3]; 24 hr exposure, 4 uM): 9% | Percent Apoptosis ([3]; 24 hr exposure, 8 uM): 23% | Percent Apoptosis ([3]; 24 hr exposure, 20 uM): 24% | Percent Apoptosis ([3]; 48 hr exposure, 1 uM): 1% | Percent Apoptosis ([3]; 48 hr exposure, 2 uM): 7% | Percent Apoptosis ([3]; 48 hr exposure, 4 uM): 25% | Percent Apoptosis ([3]; 48 hr exposure, 8 uM): 59% | Percent Apoptosis ([3]; 48 hr exposure, 20 uM): 35% | Percent Apoptosis ([4]; 24 hr exposure, 1 uM): 0% | Percent Apoptosis ([4]; 24 hr exposure, 2 uM): 8% | Percent Apoptosis ([4]; 24 hr exposure, 4 uM): 9% | Percent Apoptosis ([4]; 24 hr exposure, 8 uM): 11% | Percent Apoptosis ([4]; 24 hr exposure, 20 uM): 19% | Percent Apoptosis ([4]; 48 hr exposure, 1 uM): 1.5% | Percent Apoptosis ([4]; 48 hr exposure, 2 uM): 8% | Percent Apoptosis ([4]; 48 hr exposure, 4 uM): 42% | Percent Apoptosis ([4]; 48 hr exposure, 8 uM): 20% | Percent Apoptosis ([4]; 48 hr exposure, 20 uM): 18% | Percentage change in TXB2 synthesis vs vehicle alone (TXB2): 0% | Percentage change in PGE2 synthesis vs vehicle alone (PGE2): −33.8%

From US8163795B2, “Chroman derivatives, medicaments and use in therapy” (Marshall Edwards, Inc., priority 2004, dated 2012)
